For assay [1], the system named is endogenous target monocytes in human PBMC. Briefly: PBMC ex vivo monocyte depletion flow cytometry assay (Example 200). Type of assay: cell-based. Conditions: with anti-cotinine antibody (SEQ ID NO: 11/12), 18-24 hours, EC50 in molar, read-out: Ex Vivo Depletion Assay pEC50 (converted). The method, boiled down:
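Monocyte depletion is reported as pEC50, averaged or given individually across runs, and read by flow cytometry staining CD45, CD14 and CD4 with a viability dye. Compounds, diluted four-fold over 11 points from 1 mM DMSO stocks, were combined with 30 μg/mL Fc-enhanced anti-cotinine antibody and human PBMC, then incubated 18-24 h at 37° C.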

Assay [2] deals with CCR2 expressing cells (CD11b+Ly6c+Hi) in peripheral blood. Briefly: In vivo depletion assay, flow cytometry of peripheral blood (Example 201). Further details: species or system human CCR2 knock-in mice (C57 background). Conditions: hCCR2 knock-in mice, IV 0.1 mpk compound + 10 mpk anti-cotinine antibody (SEQ ID NO: 13/14), peripheral blood at 48 hr. As for the experimental part:
Stock solution preparation. Stock solutions of compounds of Formula (I) were prepared at 20 mg/mL and 100 mg/mL in […] for PK/PD and dose tolerability studies respectively. Stock solutions were stored at […] until further usage. on the day of experiment, the stock Solution of the compound of Formula (I) was removed from storage at […] and thawed at room temperature. Anti-cotinine antibody having a heavy chain sequence of SEC ID NO: 13 and a light chain sequence of SEQ ID NO: 14 (rabbit variable region sequence with mouse IgG2a Fc domain), if required was removed from storage at −80° C. and thawed at room temperature. Antibody vials were immediately transferred into wet ice after thawing. Compounds of Formula (I) were further diluted in DMSO as per experimental requirements.
The formulation composition was Saline: DMSI: PBS.
Saline was added based on the quantity required and then stock solution of the compound of Formula (I) prepared in DMSO, followed by addition of antibody in PBS. Formulations were incubated at room temperature for 30 minutes before administration to the mouse. DMSO was used at 1 to % (v/v) in the final formulation.
After bleeding, each mouse was sacrificed by cervical dislocation. […] Flow Cytometry Analysis:
CCR2 depletion in peripheral blood was determined by flow cytometry. Briefly, peripheral blood was collected from all animals at the end of study termination and processed. Blood samples were lysed using 1×RBC Lysis buffer and the resulting cell pellet was washed twice in FACS buffer (HBSS containing 5% FBS). Cells were subjected to Fc blocking using mouse Fc block from Biolegend (Trustain, anti-mouse CD16/32, Cat: 101319) to block non-specific binding followed by surface staining for immune markers (CD45, CD3, CD11 b, Ly6C, human CCR2). Surface staining was done for 30 minutes in ice and cells were washed twice to remove unbound antibodies. Cells were stained with 7AAD to determine viability and acquired on BD FACSVerse flow cytometer. Appropriate FMO controls and single-color controls were included in the experiment for gating and compensation respectively.
Percent depletion of CD11 b+Ly6c+Hi cells and CCR2 expression for the different treatment groups was determined.

Counter-ions that a name gives are not always drawn.

Regarding `CC(C)N(C)[C@@H]1CC[C@H](N2CC[C@H](Nc3ncnc4ccc(C(F)(F)F)cc34)C2=O)[C@H](NC(=O)[C@H]2CC[C@@H](NC(=O)COCCOCCNC(=O)CCNC(=O)[C@H]3CC(=O)N(C)[C@@H]3c3cccnc3)CC2)C1` [Example 82, (2S,3S)-N-(3-((2-(2-(2-(((1S,4s)-4-(((1R,2S,5R)-5-(Isopropyl(methyl)amino)-2-((S)-2-oxo-3-((6-(trifluoromethyl)quinazolin-4-yl)amino)pyrrolidin-1-yl)cyclohexyl)carbamoyl)cyclohexyl)amino)-2-oxoethoxy)ethoxy)ethyl)amino)-3-oxopropyl)-1-methyl-5-oxo-2-(pyridin-3-yl)pyrrolidine-3-carboxamide], in assay [1], the EC50 was 501 pM. Moreover, the “% Depletion of CCR2 expressing cells” value in assay [2] was found to be 94%.
Take `CC(C)N(C)[C@@H]1CC[C@H](N2CC[C@H](Nc3ncnc4ccc(C(F)(F)F)cc34)C2=O)[C@H](NC(=O)CCc2ccc(C3CCN(C(=O)CCCCCNC(=O)[C@H]4CC(=O)N(C)[C@@H]4c4cccnc4)CC3)cc2)C1` [Example 86, (2S,3S)-N-(6-(4-(4-(3-(((1R,2S,5R)-5-(Isopropyl(methyl)amino)-2-((S)-2-oxo-3-((6-(trifluoromethyl)quinazolin-4-yl)amino)pyrrolidin-1-yl)cyclohexyl)amino)-3-oxopropyl)phenyl)piperidin-1-yl)-6-oxohexyl)-1-methyl-5-oxo-2-(pyridin-3-yl)pyrrolidine-3-carboxamide]: the EC50 in assay [1] is 158 pM. In addition, the “% Depletion of CCR2 expressing cells” value in assay [2] is 25.67%.
As for `CC(C)N(C)[C@@H]1CC[C@H](N2CC[C@H](Nc3ncnc4ccc(C(F)(F)F)cc34)C2=O)[C@H](NC(=O)C2CCN(C3CCN(CCOCCOCCNC(=O)[C@H]4CC(=O)N(C)[C@@H]4c4cccnc4)CC3)CC2)C1` [Example 90, N-((1R,2S,5R)-5-(Isopropyl(methyl)amino)-2-((S)-2-oxo-3-((6-(trifluoromethyl)quinazolin-4-yl)amino)pyrrolidin-1-yl)cyclohexyl)-1′-(2-(2-(2-((2S,3S)-1-methyl-5-oxo-2-(pyridin-3-yl)pyrrolidine-3-carboxamido)ethoxy)ethoxy)ethyl)-[1,4′-bipiperidine]-4-carboxamide], the EC50 in assay [1] is 1580 pM. Further, the “% Depletion of CCR2 expressing cells” value in assay [2] amounted to 87.57%.
In the case of `CN1C(=O)C[C@H](C(=O)NCCOCC(=O)NCCOCC(=O)N[C@H]2CC[C@@H](C(=O)N[C@@H]3C[C@H](NC(C)(C)C)CC[C@@H]3N3CC[C@H](Nc4ncnc5ccc(C(F)(F)F)cc45)C3=O)CC2)[C@H]1c1cccnc1` [Example 100, (2S,3S)-N-(2-(2-((2-(2-(((1S,4s)-4-(((1R,2S,5R)-5-(tert-Butylamino)-2-((S)-2-oxo-3-((6-(trifluoromethyl)quinazolin-4-yl)amino)pyrrolidin-1-yl)cyclohexyl)carbamoyl)cyclohexyl)amino)-2-oxoethoxy)ethyl)amino)-2-oxoethoxy)ethyl)-1-methyl-5-oxo-2-(pyridin-3-yl)pyrrolidine-3-carboxamide], in assay [1], the EC50 is 1260 pM. For the same molecule, the “% Depletion of CCR2 expressing cells” value in assay [2] amounted to 74%.
Consider `CC(C)N(C)[C@@H]1CC[C@H](N2CC[C@H](Nc3ncnc4ccc(C(F)(F)F)cc34)C2=O)[C@H](NC(=O)CNC(=O)[C@H]2CC[C@@H](NC(=O)COCCOCCNC(=O)[C@H]3CC(=O)N(C)[C@@H]3c3cccnc3)CC2)C1` [Example 136, (2S,3S)-N-(2-(2-(2-(((1S,4R)-4-((2-(((1R,2S,5R)-5-(Isopropyl(methyl)amino)-2-((S)-2-oxo-3-((6-(trifluoromethyl)quinazolin-4-yl)amino)pyrrolidin-1-yl)cyclohexyl)amino)-2-oxoethyl)carbamoyl)cyclohexyl)amino)-2-oxoethoxy)ethoxy)ethyl)-1-methyl-5-oxo-2-(pyridin-3-yl)pyrrolidine-3-carboxamide], for which, in assay [1], the EC50 is 10000 pM. The “% Depletion of CCR2 expressing cells” value in assay [2] came to 88%.
With `CC(C)N(C)[C@@H]1CC[C@H](N2CC[C@H](Nc3ncnc4ccc(C(F)(F)F)cc34)C2=O)[C@H](NC(=O)C2CCN(CCCCCCCCNC(=O)[C@H]3CC(=O)N(C)[C@@H]3c3cccnc3)CC2)C1` [Example 144, N-((1R,2S,5R)-5-(Isopropyl(methyl)amino)-2-((S)-2-oxo-3-((6-(trifluoromethyl)quinazolin-4-yl)amino)pyrrolidin-1-yl)cyclohexyl)-1-(8-((2S,3S)-1-methyl-5-oxo-2-(pyridin-3-yl)pyrrolidine-3-carboxamido)octyl)piperidine-4-carboxamide, 3Formic acid salt], the EC50 in assay [1] is 501 pM. For the same molecule, the “% Depletion of CCR2 expressing cells” value in assay [2] worked out at 85.67%.
`CC(C)N(C)[C@@H]1CC[C@H](N2CC[C@H](Nc3ncnc4ccc(C(F)(F)F)cc34)C2=O)[C@H](NC(=O)[C@H]2CC[C@H](N3CCN(CCCCCCCCNC(=O)[C@H]4CC(=O)N(C)[C@@H]4c4cccnc4)CC3)CC2)C1` [Example 146, (2S,3S)-N-(8-(4-((1R,4r)-4-(((1R,2S,5R)-5-(Isopropyl(methyl)amino)-2-((S)-2-oxo-3-((6-(trifluoromethyl)quinazolin-4-yl)amino)pyrrolidin-1-yl)cyclohexyl)carbamoyl)cyclohexyl)piperazin-1-yl)octyl)-1-methyl-5-oxo-2-(pyridin-3-yl)pyrrolidine-3-carboxamide]: the EC50 in assay [1] is 316 pM. In addition, the “% Depletion of CCR2 expressing cells” value in assay [2] is on record as 83.08%.
For the molecule `CC(C)N(C)[C@@H]1CC[C@H](N2CC[C@H](Nc3ncnc4ccc(C(F)(F)F)cc34)C2=O)[C@H](NC(=O)C2CCN(CCOCCOCCOCCOCCNC(=O)[C@H]3CC(=O)N(C)[C@@H]3c3cccnc3)CC2)C1` [Example 147], the EC50 in assay [1] is 631 pM. In assay [2], the “% Depletion of CCR2 expressing cells” value is reported as 77%.
On to `CC(C)N(C)[C@@H]1CC[C@H](N2CC[C@H](Nc3ncnc4ccc(C(F)(F)F)cc34)C2=O)[C@H](NC(=O)[C@H]2CC[C@@H](C(=O)NCCCN3CCN(CCCNC(=O)[C@H]4CC(=O)N(C)[C@@H]4c4cccnc4)CC3)CC2)C1` [Example 150, (1 s,4S)-N^1-((1R,2S,5R)-5-(Isopropyl(methyl)amino)-2-((S)-2-oxo-3-((6-(trifluoromethyl)quinazolin-4-yl)amino)pyrrolidin-1-yl)cyclohexyl)-N^4-(3-(4-(3-((2S,3S)-1-methyl-5-oxo-2-(pyridin-3-yl)pyrrolidine-3-carboxamido)propyl)piperazin-1-yl)propyl)cyclohexane-1,4-dicarboxamide], for which the EC50 in assay [1] was 1000 pM. For the same molecule, the “% Depletion of CCR2 expressing cells” value in assay [2] came out at 85.52%.
`CC(C)N(C)[C@@H]1CC[C@H](N2CC[C@H](Nc3ncnc4ccc(C(F)(F)F)cc34)C2=O)[C@H](NC(=O)[C@H]2CC[C@H](N3CCN(C(=O)CCCCCCCCNC(=O)[C@H]4CC(=O)N(C)[C@@H]4c4cccnc4)CC3)CC2)C1` [Example 155, (2S,3S)-N-(9-(4-((1R,4r)-4-(((1R,2S,5R)-5-(Isopropyl(methyl)amino)-2-((S)-2-oxo-3-((6-(trifluoromethyl)quinazolin-4-yl)amino)pyrrolidin-1-yl)cyclohexyl)carbamoyl)cyclohexyl)piperazin-1-yl)-9-oxononyl)-1-methyl-5-oxo-2-(pyridin-3-yl)pyrrolidine-3-carboxamide]: the EC50 in assay [1] is 251 pM. The “% Depletion of CCR2 expressing cells” value in assay [2] was determined as 70%.
The matching figures for `CC(C)N(C)[C@@H]1CC[C@H](N2CC[C@H](Nc3ncnc4ccc(C(F)(F)F)cc34)C2=O)[C@H](NC(=O)CCCCOCCCCCCCCOCCCCNC(=O)[C@H]2CC(=O)N(C)[C@@H]2c2cccnc2)C1` [Example 161, (2S,3S)-N-(4-((8-((5-(((1R,2S,5R)-5-(Isopropyl(methyl)amino)-2-((S)-2-oxo-3-((6-(trifluoromethyl)quinazolin-4-yl)amino)pyrrolidin-1-yl)cyclohexyl)amino)-5-oxopentyl)oxy)octyl)oxy)butyl)-1-methyl-5-oxo-2-(pyridin-3-yl)pyrrolidine-3-carboxamide]: 794 pM and 76.67%.

Values taken from patent US12521393B2, “Cytotoxicity targeting chimeras for CCR2-expressing cells” (GLAXOSMITHKLINE INTELLECTUAL PROPERTY DEVELOPMENT LIMITED, priority 2021, dated 2026).
